From patent EP0514540B1, “PYRROLO 2,3-d]PYRIMIDINE DERIVATIVE, PROCESS FOR PREPARING THE SAME, AND PHARMACEUTICAL PREPARATION COMPRISING THE DERIVATIVE AS ACTIVE INGREDIENT” (TEIJIN LIMITED, priority 1989, dated 1991)

Tests used:
hypoxemia state = test: Effect on partial pressure of gases in arterial blood, oral administration system (acetic acid-induced hypoxemia); type: in vivo, Male Wistar strain rats; conditions: orally administered; 2.0% acetic acid intratracheal 0.8 ml/kg; 60 min. after the administration
Description: Example 60: Effect on Partial Pressure Value of Gases in Arterial Blood (Oral Administration System)
Male Wistar strain rats (body weight about 250 g) fasted overnight were anesthetized with halothane inhalant, and then a cannula was inserted into the femoral artery. After the animals recovered from the anesthesia, they were again anesthetized with halothane inhalant, and then 2.0% acetic acid was intratrachealy injected at 0.8 ml/kg to induce a hypoxemia state. After the hypoxemic state was observed over about 60 min., a compound in accordance with the present invention (test substance) was orally administered to the animals. On 60 min. after the administration, the partial pressure value of gases (PaO2, PaCO2) in arterial blood were determined.

hypoxemia model animals [1] = test: Effect on partial pressure of gases in arterial blood, injection system, Method B (acetic acid-induced hypoxemia); type: in vivo, Male Wister strain rats; conditions: 2.0% acetic acid intratracheal 0.6 ml/kg, PaO2 60-70 mmHg, intravenous continuous 0.1 mg/kg/min, after minus before administration
Description: (§1) Example 59: Effect on Partial Pressure Value of Gases in Arterial Blood (Injection system)
Male Wister strain rats (body about 300 g) were anesthetized with halothane inhalant, and then 2.0% acetic acid was intratrachealy injected at 0.6 ml/kg to induce a respiratory insufficiency. The animals were intra-peritoneally anesthetized with urethane-α-chloralose, and a cannula was inserted into the femoral artery. After the hypoxemic state (PaO2: 60-70 mmHg) was observed a compound in accordance with the present invention (test substance) was intravenously injected into these hypoxemia model animals by a continuous manner (0.1 mg/kg/min), and then a partial pressure value of gases (PaO2, PaCO2) in arterial blood were immediately determined.

hypoxemia model animals [2] = test: Effect on partial pressure of gases in arterial blood, injection system, Method A (carbon powder-induced hypoxemia); type: in vivo, Male Wister strain rats; conditions: carbon powder intratracheal, PaO2 50-60 mmHg, intravenous continuous 0.1 mg/kg/min., 10 min, after minus before administration
Description: as §1
Male Wister strain rats (body weight about 300 g) were anesthetized intra-peritoneally with urethane, and a cannula was inserted into the respiratory tract and the femoral artery, respectively. A suspension (30-100 µm, 10 mg/ml) of carbon powder in a corn oil was intratrachealy injected to induce a hypoxemia state (PaO2; 50-60 mmHg). A compound in accordance with the present invention was intravenously injected into these hypoxemia model animals by a continuous manner (0.1 mg/kg/min., 10 min), and then a partial pressure value of gases (PaO2, PaCO2) in arterial blood were immediately determined.

Row | Compound | Activity for Decreasing PaCO2 ΔPaCO2 (hypoxemia state) | Activity for Increasing PaO2 ΔPaO2 (hypoxemia state) | Activity for Decreasing PaCO2 ΔPaCO2 (hypoxemia model animals [1]) | Activity for Increasing PaO2 ΔPaO2 (hypoxemia model animals [1]) | Activity for Decreasing PaCO2 ΔPaCO2 (hypoxemia model animals [2]) | Activity for Increasing PaO2 ΔPaO2 (hypoxemia model animals [2])
1 | C=CCNc1nc(NC(C)c2ccccc2)c2ccn(C)c2n1 (racemic) [Compound 156, (±)-2-allylamino-7-methyl-4-(1-phenylethyl-amino)-7H-pyrrolo[2,3-d]pyrimidine] | + (+: -3 - -6 mmHg) | + + | -9.1 mmHg | +19.7 mmHg | – | –
2 | C=CCNc1nc(N2CCC(OC(C)=O)CC2)c2ccn(C)c2n1 [Compound 119] | – | – | – | – | -2.6 mmHg | +7.1 mmHg
3 | C=CCNc1nc(N2CCOCC2)c2ccn(C)c2n1 [Compound 124] | + (+: -3 - -6 mmHg) | + (ΔPaO2 +: +3 - +6 mmHg) | -4.0 mmHg | +5.7 mmHg | – | –
4 | C=CCNc1nc(N2CCN(C(c3ccc(F)cc3)c3ccc(F)cc3)CC2)c2ccn(C)c2n1 [Compound 133] | – | – | – | – | -0.6 mmHg | +6.9 mmHg
5 | C=CCNc1nc(N2CCN(C(c3ccc(F)cc3)c3ccc(F)cc3)CC2)c2ccn(CC=C)c2n1 [Compound 143] | – | – | – | – | +1.1 mmHg | +5.0 mmHg
6 | C=CCNc1nc(NC2CCCCC2)c2ccn(C)c2n1 [Compound 150] | – | – | -18.6 mmHg | +18.4 mmHg | – | –
7 | C=CCNc1nc(NC2CCCc3ccccc32)c2ccn(C)c2n1 (centres unmarked) [Compound 162] | – | – | -17.2 mmHg | +18.1 mmHg | – | –
8 | C=CCNc1nc(NCCc2ccccc2)c2ccn(C)c2n1 [Compound 164] | – | – | -19.2 mmHg | +15.4 mmHg | – | –
9 | C=CCNc1nc(N(C)C)c2ccn(C)c2n1 [Compound 165] | ± (ΔPaCO2 ±: 0 - -3 mmHg) | + (ΔPaO2 +: +3 - +6 mmHg) | +1.1 mmHg | +7.9 mmHg | – | –
10 | C=CCNc1nc(N(C)CCc2ccccc2)c2ccn(C)c2n1 [Compound 167] | – | – | -6.6 mmHg | +11.3 mmHg | – | –
